Non-standard residues stand in square brackets, D forms with d. Residues, ends and D or L forms follow the SMILES beside them. *: point of attachment. NBD = O=[N+]([O-])c1ccc(*)c2nonc12; Nle = CCCC[C@H](N)C(=O)O; Ahx = NCCCCCC(=O)O
Assay: Stability in ARDS bronchoalveolar lavage fluid (MALDI-TOF MS)
Assay type: in vitro ADME, human
Details: for stability in ARDS BALF: human ARDS BALF pooled from three patients vs PBS, 5 and 30 min
Excerpt: To determine the ability of UBI-3 to image bacteria in the continued presence of a complex inflammatory environment, bacteria were labelled with UBI-3 in the presence of broncho-alveolar lavage fluid (BALF) retrieved from ventilated ICU patients with Acute Respiratory Distress Syndrome (ARDS). ARDS BALF was utilised as ARDS is a severe life threatening pulmonary syndrome, characterized by a massive proteolytic and oxidative inflammatory environment within the distal alveolar region.[14] […] To design out susceptible amino acid cleavage points, a number of modifications were made (Table 1) and the functional consequences assessed. The chemical approaches pursued to improve resistance to degradation included replacing amino acids at the cleavage positions with non-natural amino acids such as N-methyl or D-amino acids,[15] and cyclisation of the peptide,[16] which could have the added benefit of enhancing affinity towards bacterial membrane.[17]
The Arg–Arg bonds were identified as the prominent position of degradation (Fig. 5) and Compounds UBI-4–9 (Table 1) were synthesised with a variety of substitutions around the degradation sites. The susceptible peptide bonds at P1–P2 and P7–P8 were blocked using N-MeArg (UBI-4), and to further mask these positions, a long polyethylene glycol (PEG) chain and/or a D-amino acid were positioned at the carboxylic and/or amino termini (UBI-5–7).
We hypothesized that cyclisation of the sequence would allow for greater stability and also improve bacterial affinity and therefore cyclic variants of UBI-3 were synthesized (UBI-10 and UBI-11), which were both found to be stable in BALF for 5 minutes (Fig. 7 and S3 ESI ^†). […] However, these studies also highlighted the degradation of UBI-10 at 10 minutes, guiding the temporal constraints of Smartprobe delivery and optical imaging.
Fig. 7 UBI-10 remains stable in ARDS BALF at 5 minutes. (A) Structure of UBI-10 with breakdown products in ARDS BALF. […] TEXT PRINTED IN THE PICTURE: UBI-10: Molecular Weight: 2118.41 | Fragment A: Molecular Weight: 1923.18 | Fragment B: Molecular Weight: 1980.23 DOUBTS OF THE COPYIST ABOUT THIS PICTURE: UBI-10, Molecular Weight: very small print, 2118.41 is the best reading; the digits 8 and 4 are uncertain / Fragment A, Molecular Weight: very small print, 1923.18 is the best reading; the digits 9, 3 and 8 are uncertain / Fragment B, Molecular Weight: very small print, 1980.23 is the best reading; the digits 9, 8 and 3 are uncertain […]
Supplementary Information
A Labelled-Ubiquicidin Antimicrobial Peptide for Immediate In Situ Optical Detection of Live Bacteria in Human Alveolar Lung Tissue
Ahsan R Akram, Nicolaos Avlonitis, Annamaria Lilienkampf, Ana M Perez-Lopez, Neil McDonald, Sunay V Chankeshwara, Emma Scholefield, Christopher Haslett, Mark Bradley & Kevin Dhaliwal.
Figure S1: MALDI-TOF MS spectra for a stability study of UBI-3 in PBS and in ARDS BALF […]
Figure S2. MALDI-TOF MS spectra of modified analogues UBI-4 to UBI-9 in Phosphate Buffered Saline and ARDS BALF over a period of 5 and 30min.
Figure S3: MALDI-TOF MS spectra of UBI-11 in Phosphate Buffered Saline vs ARDS BALF […]
Figure S4. Quantified fluorescence of confocal microscopy images of the compounds UBI-3, UBI-5 and UBI-10 on three bacteria and fluorescence retention following a PBS wash.
Figure S5: Fibered confocal fluorescence microscopy imaging of human lung and Calcein AM stained Methicillin sensitive S. aureus.
Experimental Details including Tables M1-4, Figure M1 and HPLC Chromatograms.
(also on this page, place not known: Electronic Supplementary Material (ESI) for Chemical Science. This journal is © The Royal Society of Chemistry 2015)
(1 picture or pasted object on this page, not shown here) […]
BALF Retrieval: Bronchoalveolar lavage was performed in the Intensive Care Unit (ICU), as previously described. S5 Pooled samples from three patients were used for stability assays. […]
Exposure to 488 nm light was limited to 5% […]

Row | Structure (SMILES) | stability in ARDS BALF (MALDI-TOF MS) | time of degradation of the peptide in ARDS BALF (human ARDS BALF, MALDI-TOF MS) | time stable in ARDS BALF (human ARDS BALF, MALDI-TOF MS) | time at which degradation products form in ARDS BALF (human ARDS BALF, MALDI-TOF time course)
1 | CCCC[C@H](NC(=O)[C@H](CCCNC(=N)N)NC(=O)[C@H](CCCNC(=N)N)NC(=O)[C@H](CCCCN)NC(=O)[C@H](C)NC(=O)[C@H](CCCNC(=N)N)NC(=O)CNC(=O)[C@@H](NC(=O)CCCCCNc1ccc([N+](=O)[O-])c2nonc12)[C@@H](C)O)C(=O)N[C@@H](CCC(N)=O)C(=O)N[C@@H](Cc1ccc(O)cc1)C(=O)N[C@@H](CC(N)=O)C(=O)N[C@@H](CCCNC(=N)N)C(=O)N[C@@H](CCCNC(=N)N)C(N)=O [UBI-3] ({NBD-Ahx}-TGRAKRR[Nle]QYNRR-NH2) | Unstable in ARDS BALF | < 5 min |  | 
2 | CCCC[C@@H]1NC(=O)[C@H](CCCNC(=N)N)NC(=O)[C@H](CCCNC(=N)N)NC(=O)[C@H](CCCCN)NC(=O)[C@H](C)NC(=O)[C@H](CCCNC(=N)N)NC(=O)CNC(=O)[C@H]([C@@H](C)O)NC(=O)[C@@H](NC(=O)CCCCCNc2ccc([N+](=O)[O-])c3nonc23)CCCCNC(=O)CNC(=O)[C@H](CCCNC(=N)N)NC(=O)[C@H](CCCNC(=N)N)NC(=O)[C@H](CC(N)=O)NC(=O)[C@H](Cc2ccc(O)cc2)NC(=O)[C@H](CCC(N)=O)NC1=O [UBI-10] | Improved stability in ARDS BALF |  | 5 min | 10 min
